Source: patent US8981148B2, “Esteramide compounds, methods for preparing same, and uses thereof” (priority 2010, dated 2015)

Tests used:
Type in all cases: physicochemical
[1] = Solubility of agrochemical actives in the solvents: visual observation at 25° C.; parameters: key: Crystal: When the formation of active crystals is observed, the term of <> is indicated; Limpid: When the solution remains limpid (absence of solid or cloudiness), it is the term of <> which is indicated
Description: (§1) Formulations were made by diluting various actives, reported below in the table, in the compounds 1C, 2C, 3 and 4 synthesized above.
1) Visual observation at 25° C.
The aspect of the formulation is noted and the presence of crystals is possibly located.
(§2) The actives used are commercially available.

[2] = Solubility of agrochemical actives in the solvents: visual observation at 0° C. after 7 days (CIPAC MT39 test); parameters: key: Crystal: When the formation of active crystals is observed, the term of <> is indicated; Limpid: When the solution remains limpid (absence of solid or cloudiness), it is the term of <> which is indicated; conditions: 7 days at 0° C.
Description: as §1
2) Visual observation at 0° C.
The formulation is placed at 0° C. for 7 days and the aspect of the formulation is noted and the presence of crystals is possibly located (CIPAC MT39 test).
as §2

[3] = Solubility of agrochemical actives in the solvents: visual observation at 0° C. with nucleation; parameters: key: Crystal: When the formation of active crystals is observed, the term of <> is indicated; Limpid: When the solution remains limpid (absence of solid or cloudiness), it is the term of <> which is indicated; conditions: crystal of active added, further 7 days at 0° C.
Description: Formulations were made by diluting various actives, reported below in the table, in the compounds 1C, 2C, 3 and 4 synthesized above. 3) Visual observation at 0° C. with nucleation (by introducing a crystal of the pure active into the liquid) A crystal of the active material is introduced into the formulation which has spent 7 days at 0° C. for nucleation, and the formulation is again placed for 7 days at 0° C. The aspect of the formulation is noted and the presence of crystals or the growth of the introduced crystal is possibly located. The actives used are commercially available.

[4] = Measurement of solubility of the solvent in water; conditions: +20° C., stirred 2 hours, visual limpidity
Description: In a glass flask, a specific weight of compound is weighed. A known mass of water is added on to this compound. T his mixture is magnetically stirred at a temperature of +20° C. for 2 hours. After this period, if visually, the solution has cloudiness or heterogeneity, a new mass of water is added to the mixture. This iteration occurs until a limpid solution is obtained. Maximum solubility is then less than the last value having led to a cloudy or heterogeneous mixture and greater than that having led to a limpid mixture.

[5] = Active Alachlor 48% EC in the compound as solvent
[6] = Active Azoxystrobin 25% EC in the compound as solvent
[7] = Active Chlorpyrifos 40% EC in the compound as solvent
[8] = Active Difenconazole 25% EC in the compound as solvent
[9] = Active Dimethoate 40% EC in the compound as solvent
[10] = Active Oxyfluorfen 22% EC in the compound as solvent
[11] = Active Pendimethalin 33% EC in the compound as solvent
[12] = Active Phenmedipham 16% EC in the compound as solvent
[13] = Active Propanil 36% EC in the compound as solvent
[14] = Active Propuxur 20% EC in the compound as solvent
[15] = Active Tebuconazole 25% EC in the compound as solvent
[16] = Active Trifluralin 40% EC in the compound as solvent
[17] = Active alpha-Cypermethrin 10% EC in the compound as solvent

Structure (SMILES) | Aspect at 25° C. [1, 5] | Aspect at 25° C. [1, 7] | Aspect at 25° C. [1, 8] | Aspect at 25° C. [1, 9] | Aspect at 25° C. [1, 10] | Aspect at 25° C. [1, 11] | Aspect at 25° C. [1, 13] | Aspect at 25° C. [1, 14] | Aspect at 25° C. [1, 16] | Aspect at 25° C. [1, 17] | Aspect at 0° C. [2, 5] | Aspect at 0° C. [2, 7] | Aspect at 0° C. [2, 8] | Aspect at 0° C. [2, 9] | Aspect at 0° C. [2, 10] | Aspect at 0° C. [2, 13] | Aspect at 0° C. [2, 16] | Aspect at 0° C. with nucleation [3, 5] | Aspect at 0° C. with nucleation [3, 8] | Aspect at 0° C. with nucleation [3, 13] | also measured
CCOC(=O)C(=O)N(C)C [Compound 2, ethyl 2-(dimethylamino)-2-oxoacetate] | Limpid | Limpid | Limpid | Limpid | Limpid | Limpid | Limpid | Limpid | Limpid | Limpid | Limpid | Limpid | Limpid | Limpid | Limpid | Limpid | Limpid | Limpid | Limpid | Limpid | Aspect at 25° C. [1, 6]: Limpid; Aspect at 25° C. [1, 12]: Limpid; Aspect at 25° C. [1, 15]: Limpid; Aspect at 0° C. [2, 6]: Crystal; Aspect at 0° C. [2, 11]: Crystal; Aspect at 0° C. [2, 12]: Limpid; Aspect at 0° C. [2, 14]: Crystal; Aspect at 0° C. [2, 15]: Crystal; Aspect at 0° C. [2, 17]: Limpid; Aspect at 0° C. with nucleation [3, 7]: Limpid; Aspect at 0° C. with nucleation [3, 9]: Crystal; Aspect at 0° C. with nucleation [3, 10]: Limpid; Aspect at 0° C. with nucleation [3, 12]: Limpid; Aspect at 0° C. with nucleation [3, 16]: Limpid; Aspect at 0° C. with nucleation [3, 17]: Limpid
CCCCCCCCCCOC(=O)C(=O)N(C)C [Compound 4, n-decyl 2-(dimethylamino)-2-oxoacetate] | Limpid | Limpid | Limpid | – | Limpid | – | Limpid | – | Limpid | – | Limpid | Crystal | Limpid | – | Limpid | Limpid | Crystal | Limpid | Limpid | Limpid | Solubility in water (wt %) [4]: <0.025 wt %; Aspect at 0° C. with nucleation [3, 10]: Limpid
COC(=O)C(=O)N(C)C [Compound 1, methyl 2-(dimethylamino)-2-oxoacetate] | Limpid | – | Limpid | Limpid | Limpid | Limpid | Limpid | Limpid | Limpid | Limpid | Limpid | – | Limpid | Crystal | Crystal | Limpid | Crystal | Limpid | Limpid | Limpid | Aspect at 25° C. [1, 6]: Limpid; Aspect at 25° C. [1, 12]: Limpid; Aspect at 25° C. [1, 15]: Limpid; Aspect at 0° C. [2, 6]: Crystal; Aspect at 0° C. [2, 11]: Crystal; Aspect at 0° C. [2, 12]: Limpid; Aspect at 0° C. [2, 14]: Limpid; Aspect at 0° C. [2, 15]: Crystal; Aspect at 0° C. [2, 17]: Limpid; Aspect at 0° C. with nucleation [3, 12]: Limpid; Aspect at 0° C. with nucleation [3, 14]: Limpid; Aspect at 0° C. with nucleation [3, 17]: Limpid
CCCCC(CC)COC(=O)C(=O)N(C)C (centres unmarked) [Compound 3, 2-ethyl-hexyl 2-(dimethylamino)-2-oxoacetate] | Limpid | Limpid | Limpid | Limpid | Limpid | Limpid | Limpid | Limpid | Limpid | Limpid | Limpid | Limpid | Limpid | Crystal | Limpid | Limpid | Limpid | Limpid | Limpid | Limpid | Solubility in water (wt %) [4]: <0.1 wt %; Aspect at 0° C. [2, 11]: Crystal; Aspect at 0° C. [2, 14]: Crystal; Aspect at 0° C. [2, 17]: Limpid; Aspect at 0° C. with nucleation [3, 7]: Limpid; Aspect at 0° C. with nucleation [3, 10]: Crystal; Aspect at 0° C. with nucleation [3, 16]: Limpid; Aspect at 0° C. with nucleation [3, 17]: Limpid
